Source: patent US8298781B2, “Compositions and methods for characterizing and regulating olfactory sensation” (Duke University, priority 2007, dated 2012)
Numbering of substitutions follows the chain as printed.

Tests used:
OR7D4 RT = target: T1, OR7D4 RT (Homo sapiens, UniProt Q8NG98); experiment: Luciferase assay of odorant receptor activation in Hana3A cells, OR7D4 RT; assay type: cell-based; design: dose or concentration left out as unconfirmed; conditions: for response of OR7D4 RT (normalized luciferase), ligand specificity panel: panel of 66 odors and 2 solvents at or 1,130,000 dilution
T1 construct: expressed in transfected cells; host or cells: Hana3A (HEK293T-derived)
T1 sequence (Q8NG98 1-312): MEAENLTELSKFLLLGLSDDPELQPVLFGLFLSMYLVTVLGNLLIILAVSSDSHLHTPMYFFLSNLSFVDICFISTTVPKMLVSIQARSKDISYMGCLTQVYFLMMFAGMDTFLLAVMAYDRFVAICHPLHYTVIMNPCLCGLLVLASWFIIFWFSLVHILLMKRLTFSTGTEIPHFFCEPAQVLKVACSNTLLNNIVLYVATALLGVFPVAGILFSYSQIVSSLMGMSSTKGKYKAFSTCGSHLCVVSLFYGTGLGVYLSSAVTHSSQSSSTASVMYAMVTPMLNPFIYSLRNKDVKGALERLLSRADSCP
Text: Heterologous expression of human odorant receptors. 423 human odorant receptors including 337 predicted functional receptors were cloned. Odorant receptors that contained the first 20 amino acid of human rhodopsin (see, e.g., Krautwurst, D., et al., Cell 95, 917-926 (1998); herein incorporated by reference in its entirety) in pCl (Promega) were expressed in the Hana3A cell line along with a short form of mRTP1, RTP1S, (M37 to the C-terminal end), which enhanced functional expression of the odorant receptors. For immunocytochemistry, cells were fixed, permeabilized and incubated with monoclonal anti-rhodopsin antibody, 4D2 (see, e.g., Laird, D. W., et al., Invest Opthalmol Vis Sci 29.419428 (1988); herein incorporated by reference in its entirety), followed by Cy3-conjugated donkey anti-mouse IgG (Jackson Immunologicals). For FACS analysis, PE-conjugated donkey anti-mouse IgG (Jackson Immunologicals) was used. Western blot analysis was performed according to Mini-Protean 2 Cell (Bio-Rad) protocol. ECL (Amersham) was used for detecting proteins on membranes. After the initial exposure, the membrane was incubated with stripping buffer (25 mM Glycine-HCl [pH2], 1% SDS, 25 mM Glycine, 0.036N HCl, 1% SDS) and incubated with rabbit anti-GFP (Invitrogen). Luciferase assays were performed as described (see, e.g., Saito, H., et al., Cell 119:679-691 (2004); incorporated herein by reference in its entirety). […]
(§1) Luciferase assay and data analysis. […] Luminescence was measured using Wallac Victor 1420 (Perkin-Elmer). Normalized luciferase activity was calculated by the formula [luc(N)-luc(lowest)]/luc(highest)/RL (N) where luc(N)=luminescence of luciferase of a certain well; luc(lowest)=lowest luminescence of luciferase of a plate or a set of plates; luc(highest)=highest luminescence of luciferase of a plate or a set of plates; RL(N)=luminescence of Renilla luciferase of a certain well. Data was analyzed with Microsoft Excel and GraphPad Prism 4.

OR7D4 P79L = target: T2, OR7D4 P79L (Homo sapiens, UniProt Q8NG98, P79L); experiment: Luciferase assay dose response, OR7D4 P79L; assay type: cell-based; conditions: all concentrations tested
T2 construct: expressed in transfected cells; host or cells: Hana3A (HEK293T-derived)
T2 sequence (Q8NG98 1-312 P79L): T1 sequence (Q8NG98 1-312) with P79L
Text: (§2) Heterologous expression of human odorant receptors. 423 human odorant receptors including 337 predicted functional receptors were cloned. Odorant receptors that contained the first 20 amino acid of human rhodopsin (see, e.g., Krautwurst, D., et al., Cell 95, 917-926 (1998); herein incorporated by reference in its entirety) in pCl (Promega) were expressed in the Hana3A cell line along with a short form of mRTP1, RTP1S, (M37 to the C-terminal end), which enhanced functional expression of the odorant receptors. For immunocytochemistry, cells were fixed, permeabilized and incubated with monoclonal anti-rhodopsin antibody, 4D2 (see, e.g., Laird, D. W., et al., Invest Opthalmol Vis Sci 29.419428 (1988); herein incorporated by reference in its entirety), followed by Cy3-conjugated donkey anti-mouse IgG (Jackson Immunologicals). […]
as §1

OR7D4 S84N = target: T3, OR7D4 S84N (Homo sapiens, UniProt Q8NG98, S84N); experiment: Luciferase assay dose response, OR7D4 S84N; assay type: cell-based; conditions: exceeding the activity of RT variant at every concentration tested
T3 sequence (Q8NG98 1-312 S84N): T1 sequence (Q8NG98 1-312) with S84N
Text: as §2, §1

cortisol levels = conditions: Wyart et al. 2007; cited from earlier work
humans = conditions: literature; cited from earlier work

Row | SMILES | response of OR7D4 RT (normalized luciferase), ligand specificity panel (OR7D4 RT) | dose-response function of OR7D4 P79L in vitro (OR7D4 P79L) | dose-response sensitivity of OR7D4 S84N in vitro (OR7D4 S84N) | cortisol levels in women smelling the odor vs women not smelling it (cortisol levels) | response of OR7D4 in screen of human odorant receptor panel (OR7D4 RT; Hana3A cells, 337 human odorant receptors, stimulated with androstenone) | humans fitting the criteria of specific anosmia (humans) | humans with reduced sensitivity (humans)
1 | C[C@@]12C=CC[C@H]1[C@@H]1CCC3=CC(=O)CC[C@]3(C)[C@H]1CC2 [androstadienone, androsta-4,16-dien-3-one] | responded selectively | severely impaired function | remarkable sensitivity | maintained at higher levels |  |  | 
2 | C[C@]12CCC(=O)C[C@@H]1CC[C@@H]1[C@@H]2CC[C@]2(C)C=CC[C@@H]12 [androstenone, 5α-androst-16-en-3-one] | responded selectively | severely impaired function | remarkable sensitivity |  | robust responses | 6% | Up to 30%
